From patent US7635572B2, “Methods for conducting assays for enzyme activity on protein microarrays” (Life Technologies Corporation, priority 2004, dated 2009)

Molecular target: plurality of kinases (Table 5) (Homo sapiens, UniProt Q9Y6R4)
Assay: Further analysis of a plurality of inhibitors and a plurality of kinases on microarray (Example IX, Table 5);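 note: inhibition of each kinase by the inhibitors is given as a qualitative level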;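 for Inhibition level, CDKL3: level 0 no or unclear inhibition to Level 2 substantial inhibition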;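 for Inhibition level, ITK: level 0 none or unclear then 1 little or marginal then 2 substantial inhibition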;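 for Inhibition level, MAP3K4: level 0 no or unclear inhibition to Level 2 substantial inhibition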;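 for Inhibition level, MAP4K3: level 0 none or unclear then 1 little or marginal then 2 substantial inhibition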;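 for Inhibition level, PIM1: level 0 no or unclear inhibition to Level 2 substantial inhibition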
Assay type: biochemical
Details: plate E7; inhibitor 100 uM

plurality of kinases (Table 5) (Homo sapiens, UniProt Q9Y6R4), sequence (Q9Y6R4 whole entry): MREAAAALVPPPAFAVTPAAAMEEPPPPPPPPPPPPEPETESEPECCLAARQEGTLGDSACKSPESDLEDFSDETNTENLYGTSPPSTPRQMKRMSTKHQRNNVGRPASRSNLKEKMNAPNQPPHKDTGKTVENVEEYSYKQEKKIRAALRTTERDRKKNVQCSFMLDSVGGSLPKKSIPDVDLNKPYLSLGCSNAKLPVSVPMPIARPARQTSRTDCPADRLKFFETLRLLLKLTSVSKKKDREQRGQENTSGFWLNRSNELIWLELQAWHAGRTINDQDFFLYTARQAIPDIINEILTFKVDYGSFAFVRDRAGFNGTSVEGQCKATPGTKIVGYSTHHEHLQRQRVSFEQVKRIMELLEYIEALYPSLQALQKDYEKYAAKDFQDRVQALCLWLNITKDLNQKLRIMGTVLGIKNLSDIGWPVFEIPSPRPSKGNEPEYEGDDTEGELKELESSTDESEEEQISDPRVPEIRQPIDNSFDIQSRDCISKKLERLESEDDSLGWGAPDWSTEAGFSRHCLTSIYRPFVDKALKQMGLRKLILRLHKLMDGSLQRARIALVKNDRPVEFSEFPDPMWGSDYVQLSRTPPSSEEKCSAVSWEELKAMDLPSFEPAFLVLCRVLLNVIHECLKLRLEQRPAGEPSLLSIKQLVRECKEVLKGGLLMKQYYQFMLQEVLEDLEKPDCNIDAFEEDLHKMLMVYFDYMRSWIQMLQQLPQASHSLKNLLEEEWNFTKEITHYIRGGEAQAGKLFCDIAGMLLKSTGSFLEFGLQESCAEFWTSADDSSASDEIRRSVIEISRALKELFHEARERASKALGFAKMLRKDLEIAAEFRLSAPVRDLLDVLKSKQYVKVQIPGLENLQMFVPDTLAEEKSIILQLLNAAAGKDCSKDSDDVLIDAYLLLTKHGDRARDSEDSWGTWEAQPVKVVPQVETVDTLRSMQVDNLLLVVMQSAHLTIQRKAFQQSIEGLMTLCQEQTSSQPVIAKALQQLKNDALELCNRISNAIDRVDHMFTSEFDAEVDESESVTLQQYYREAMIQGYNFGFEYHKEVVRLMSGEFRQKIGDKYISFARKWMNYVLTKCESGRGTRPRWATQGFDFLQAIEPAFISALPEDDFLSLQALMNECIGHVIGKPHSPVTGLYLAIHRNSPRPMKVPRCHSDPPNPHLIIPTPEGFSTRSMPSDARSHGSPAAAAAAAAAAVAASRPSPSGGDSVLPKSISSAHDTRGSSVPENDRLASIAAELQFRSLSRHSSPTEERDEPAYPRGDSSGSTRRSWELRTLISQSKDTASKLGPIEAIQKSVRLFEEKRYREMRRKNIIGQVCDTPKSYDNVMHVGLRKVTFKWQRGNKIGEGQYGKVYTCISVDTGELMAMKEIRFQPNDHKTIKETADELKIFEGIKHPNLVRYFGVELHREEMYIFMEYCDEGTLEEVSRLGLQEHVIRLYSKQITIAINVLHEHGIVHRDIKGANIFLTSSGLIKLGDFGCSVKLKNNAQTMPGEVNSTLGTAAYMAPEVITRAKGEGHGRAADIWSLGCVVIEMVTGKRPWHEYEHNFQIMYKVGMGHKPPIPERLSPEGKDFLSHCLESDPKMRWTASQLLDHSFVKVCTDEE

SMILES	Inhibition level, MAP3K4
CC(C)(C)n1nc(-c2ccc(Cl)cc2)c2c(N)ncnc21 [PP2]	2
O=c1c(O)c(-c2ccc(O)c(O)c2)oc2cc(O)cc(O)c12 [Quercetin]	0
Cn1cc(C2=C(c3cn(CCCSC(=N)N)c4ccccc34)C(=O)NC2=O)c2ccccc21 [Ro-31-8220]	2
CC(=O)c1c(O)c(C)c(O)c(Cc2c(O)c3c(c(C(=O)/C=C/c4ccccc4)c2O)OC(C)(C)C=C3)c1O [Rottlerin (Mallotoxin)]	1

Molecular target: T1, plurality of kinases (Table 5) (Homo sapiens, UniProt Q8IVH8)
T1 sequence (Q8IVH8 1-894): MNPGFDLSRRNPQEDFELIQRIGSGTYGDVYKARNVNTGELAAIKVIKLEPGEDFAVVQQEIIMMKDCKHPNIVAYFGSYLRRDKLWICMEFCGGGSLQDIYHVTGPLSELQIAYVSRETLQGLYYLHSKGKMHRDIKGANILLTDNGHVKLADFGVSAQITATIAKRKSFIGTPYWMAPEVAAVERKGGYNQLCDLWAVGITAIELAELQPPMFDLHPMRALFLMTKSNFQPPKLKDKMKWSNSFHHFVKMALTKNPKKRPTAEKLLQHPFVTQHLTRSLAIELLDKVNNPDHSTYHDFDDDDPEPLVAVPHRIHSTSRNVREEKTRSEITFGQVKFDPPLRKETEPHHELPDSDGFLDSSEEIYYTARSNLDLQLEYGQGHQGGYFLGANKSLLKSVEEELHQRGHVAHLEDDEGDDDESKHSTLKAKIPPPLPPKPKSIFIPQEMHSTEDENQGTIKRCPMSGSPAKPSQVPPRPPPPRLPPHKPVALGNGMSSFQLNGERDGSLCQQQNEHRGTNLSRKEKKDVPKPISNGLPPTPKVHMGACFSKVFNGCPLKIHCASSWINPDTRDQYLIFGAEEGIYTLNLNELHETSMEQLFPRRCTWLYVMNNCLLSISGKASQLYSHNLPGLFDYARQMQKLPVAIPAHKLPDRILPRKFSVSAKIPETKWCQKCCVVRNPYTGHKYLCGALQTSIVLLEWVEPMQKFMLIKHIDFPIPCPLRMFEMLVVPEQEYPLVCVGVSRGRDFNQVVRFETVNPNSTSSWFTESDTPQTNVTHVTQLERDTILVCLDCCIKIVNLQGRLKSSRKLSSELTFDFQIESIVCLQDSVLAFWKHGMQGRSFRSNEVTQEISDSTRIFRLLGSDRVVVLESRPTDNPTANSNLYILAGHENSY
Assay: as above
Assay type: biochemical
Details: plate C5; inhibitor 100 uM

SMILES	Inhibition level, MAP4K3
CC(C)(C)n1nc(-c2ccc(Cl)cc2)c2c(N)ncnc21 [PP2]	2
O=c1c(O)c(-c2ccc(O)c(O)c2)oc2cc(O)cc(O)c12 [Quercetin]	1
Cn1cc(C2=C(c3cn(CCCSC(=N)N)c4ccccc34)C(=O)NC2=O)c2ccccc21 [Ro-31-8220]	2
CC(=O)c1c(O)c(C)c(O)c(Cc2c(O)c3c(c(C(=O)/C=C/c4ccccc4)c2O)OC(C)(C)C=C3)c1O [Rottlerin (Mallotoxin)]	1

Molecular target: plurality of kinases (Table 5) (Homo sapiens, UniProt Q7KZI7)
Assay: as above
Assay type: biochemical
Details: plate C4; inhibitor 100 uM

plurality of kinases (Table 5) (Homo sapiens, UniProt Q7KZI7), sequence (Q7KZI7 whole entry): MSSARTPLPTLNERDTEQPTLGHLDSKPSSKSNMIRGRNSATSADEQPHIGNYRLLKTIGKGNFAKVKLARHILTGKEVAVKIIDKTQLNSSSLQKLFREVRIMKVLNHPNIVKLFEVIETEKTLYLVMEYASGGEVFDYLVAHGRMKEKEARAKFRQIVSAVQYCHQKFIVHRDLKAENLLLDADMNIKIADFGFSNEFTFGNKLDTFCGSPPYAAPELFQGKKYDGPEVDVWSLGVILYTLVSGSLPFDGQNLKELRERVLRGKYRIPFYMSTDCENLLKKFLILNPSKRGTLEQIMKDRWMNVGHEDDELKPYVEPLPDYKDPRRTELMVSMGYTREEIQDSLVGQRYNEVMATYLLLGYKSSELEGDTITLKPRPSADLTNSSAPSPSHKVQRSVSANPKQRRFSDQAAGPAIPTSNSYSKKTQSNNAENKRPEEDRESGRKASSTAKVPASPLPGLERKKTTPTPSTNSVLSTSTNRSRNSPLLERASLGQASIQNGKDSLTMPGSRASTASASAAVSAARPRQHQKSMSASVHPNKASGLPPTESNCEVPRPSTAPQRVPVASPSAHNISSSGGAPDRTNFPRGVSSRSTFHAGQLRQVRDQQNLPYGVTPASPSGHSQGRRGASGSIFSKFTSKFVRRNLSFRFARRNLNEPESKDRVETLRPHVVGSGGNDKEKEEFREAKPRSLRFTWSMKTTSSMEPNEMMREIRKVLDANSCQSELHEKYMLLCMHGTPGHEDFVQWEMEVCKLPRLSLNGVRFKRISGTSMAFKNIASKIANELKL

SMILES	Inhibition level, MARK2
CC(C)(C)n1nc(-c2ccc(Cl)cc2)c2c(N)ncnc21 [PP2]	2
Cn1cc(C2=C(c3cn(CCCSC(=N)N)c4ccccc34)C(=O)NC2=O)c2ccccc21 [Ro-31-8220]	2
CC(=O)c1c(O)c(C)c(O)c(Cc2c(O)c3c(c(C(=O)/C=C/c4ccccc4)c2O)OC(C)(C)C=C3)c1O [Rottlerin (Mallotoxin)]	2

Molecular target: plurality of kinases (Table 5) (Homo sapiens, UniProt P09769)
Assay: as above
Assay type: biochemical
Details: plate B10; Ro-31-8220, conc. not given

plurality of kinases (Table 5) (Homo sapiens, UniProt P09769), sequence (P09769 whole entry): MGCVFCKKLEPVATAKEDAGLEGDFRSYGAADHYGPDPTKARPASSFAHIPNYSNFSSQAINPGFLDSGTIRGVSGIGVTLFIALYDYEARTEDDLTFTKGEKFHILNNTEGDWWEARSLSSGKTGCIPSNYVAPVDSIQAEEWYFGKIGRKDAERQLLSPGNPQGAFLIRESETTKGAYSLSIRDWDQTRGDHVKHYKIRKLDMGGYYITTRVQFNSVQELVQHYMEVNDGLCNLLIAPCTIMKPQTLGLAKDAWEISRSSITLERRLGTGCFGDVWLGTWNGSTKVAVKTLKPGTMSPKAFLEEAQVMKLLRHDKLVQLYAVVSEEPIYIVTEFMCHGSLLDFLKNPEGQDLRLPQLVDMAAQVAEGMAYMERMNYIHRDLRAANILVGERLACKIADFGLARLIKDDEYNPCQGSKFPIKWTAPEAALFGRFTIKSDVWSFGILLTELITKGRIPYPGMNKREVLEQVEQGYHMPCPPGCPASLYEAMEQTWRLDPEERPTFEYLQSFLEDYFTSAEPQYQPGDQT

SMILES	Inhibition level, FGR
Cn1cc(C2=C(c3cn(CCCSC(=N)N)c4ccccc34)C(=O)NC2=O)c2ccccc21 [Ro-31-8220]	2

Same assay, conditions: plate B10; Staurosporine, conc. not given

SMILES	Inhibition level, FGR
CN[C@@H]1C[C@H]2O[C@@](C)([C@@H]1OC)n1c3ccccc3c3c4c(c5c6ccccc6n2c5c31)C(=O)NC4 [Staurosporine]	2

Same assay, conditions: plate B10; inhibitor 100 uM

SMILES	Inhibition level, FGR
CC(C)(C)n1nc(-c2ccc(Cl)cc2)c2c(N)ncnc21 [PP2]	2
O=c1c(O)c(-c2ccc(O)c(O)c2)oc2cc(O)cc(O)c12 [Quercetin]	2
Cn1cc(C2=C(c3cn(CCCSC(=N)N)c4ccccc34)C(=O)NC2=O)c2ccccc21 [Ro-31-8220]	2
CC(=O)c1c(O)c(C)c(O)c(Cc2c(O)c3c(c(C(=O)/C=C/c4ccccc4)c2O)OC(C)(C)C=C3)c1O [Rottlerin (Mallotoxin)]	2

Molecular target: T2, plurality of kinases (Table 5) (Homo sapiens, UniProt Q8IV63)
T2 sequence (Q8IV63 1-474): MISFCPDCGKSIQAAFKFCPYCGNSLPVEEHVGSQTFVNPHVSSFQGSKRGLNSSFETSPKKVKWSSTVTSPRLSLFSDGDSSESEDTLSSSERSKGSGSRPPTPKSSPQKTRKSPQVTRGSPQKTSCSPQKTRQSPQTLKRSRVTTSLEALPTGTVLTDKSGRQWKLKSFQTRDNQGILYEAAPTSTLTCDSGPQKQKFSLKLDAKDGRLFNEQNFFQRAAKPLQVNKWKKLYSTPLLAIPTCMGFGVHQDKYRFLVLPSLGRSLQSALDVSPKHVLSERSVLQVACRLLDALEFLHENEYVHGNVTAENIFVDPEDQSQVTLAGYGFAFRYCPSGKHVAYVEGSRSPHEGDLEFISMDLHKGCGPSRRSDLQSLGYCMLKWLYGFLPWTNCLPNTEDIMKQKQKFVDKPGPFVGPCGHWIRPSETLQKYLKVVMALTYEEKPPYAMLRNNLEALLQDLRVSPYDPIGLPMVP
Assay: as above
Assay type: biochemical
Details: plate C12; Ro-31-8220 90 uM

SMILES	Inhibition level, LOC51231
Cn1cc(C2=C(c3cn(CCCSC(=N)N)c4ccccc34)C(=O)NC2=O)c2ccccc21 [Ro-31-8220]	0

Same assay, conditions: plate C12; Staurosporine 21.5 uM

SMILES	Inhibition level, LOC51231
CN[C@@H]1C[C@H]2O[C@@](C)([C@@H]1OC)n1c3ccccc3c3c4c(c5c6ccccc6n2c5c31)C(=O)NC4 [Staurosporine]	0

Same assay, conditions: plate C12; inhibitor 100 uM

SMILES	Inhibition level, LOC51231
CC(C)(C)n1nc(-c2ccc(Cl)cc2)c2c(N)ncnc21 [PP2]	0
O=c1c(O)c(-c2ccc(O)c(O)c2)oc2cc(O)cc(O)c12 [Quercetin]	0
Cn1cc(C2=C(c3cn(CCCSC(=N)N)c4ccccc34)C(=O)NC2=O)c2ccccc21 [Ro-31-8220]	2
CC(=O)c1c(O)c(C)c(O)c(Cc2c(O)c3c(c(C(=O)/C=C/c4ccccc4)c2O)OC(C)(C)C=C3)c1O [Rottlerin (Mallotoxin)]	0

Molecular target: plurality of kinases (Table 5) (Homo sapiens, UniProt Q8IVW4)
Assay: as above
Assay type: biochemical
Details: plate F12; inhibitor 100 uM

plurality of kinases (Table 5) (Homo sapiens, UniProt Q8IVW4), sequence (Q8IVW4 whole entry): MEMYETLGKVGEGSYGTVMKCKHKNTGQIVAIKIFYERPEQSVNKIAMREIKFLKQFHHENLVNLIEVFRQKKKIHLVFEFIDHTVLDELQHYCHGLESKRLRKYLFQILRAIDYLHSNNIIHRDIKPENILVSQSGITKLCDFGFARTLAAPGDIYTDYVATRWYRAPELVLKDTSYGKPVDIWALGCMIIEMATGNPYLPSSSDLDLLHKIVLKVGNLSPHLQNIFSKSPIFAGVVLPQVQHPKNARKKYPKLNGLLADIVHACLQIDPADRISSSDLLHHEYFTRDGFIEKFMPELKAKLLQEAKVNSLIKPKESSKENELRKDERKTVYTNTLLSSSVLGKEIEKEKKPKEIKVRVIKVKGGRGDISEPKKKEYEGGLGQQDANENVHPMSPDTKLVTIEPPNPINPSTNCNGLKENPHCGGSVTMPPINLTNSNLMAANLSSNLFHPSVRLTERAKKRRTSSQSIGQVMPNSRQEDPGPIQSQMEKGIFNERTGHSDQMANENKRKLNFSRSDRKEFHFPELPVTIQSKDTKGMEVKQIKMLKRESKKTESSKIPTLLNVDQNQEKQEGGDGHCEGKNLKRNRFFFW

SMILES	Inhibition level, CDKL3
CC(C)(C)n1nc(-c2ccc(Cl)cc2)c2c(N)ncnc21 [PP2]	2
O=c1c(O)c(-c2ccc(O)c(O)c2)oc2cc(O)cc(O)c12 [Quercetin]	0
Cn1cc(C2=C(c3cn(CCCSC(=N)N)c4ccccc34)C(=O)NC2=O)c2ccccc21 [Ro-31-8220]	2
CC(=O)c1c(O)c(C)c(O)c(Cc2c(O)c3c(c(C(=O)/C=C/c4ccccc4)c2O)OC(C)(C)C=C3)c1O [Rottlerin (Mallotoxin)]	1

Molecular target: T3, plurality of kinases (Table 5) (Homo sapiens, UniProt Q08881)
T3 sequence (Q08881 1-620): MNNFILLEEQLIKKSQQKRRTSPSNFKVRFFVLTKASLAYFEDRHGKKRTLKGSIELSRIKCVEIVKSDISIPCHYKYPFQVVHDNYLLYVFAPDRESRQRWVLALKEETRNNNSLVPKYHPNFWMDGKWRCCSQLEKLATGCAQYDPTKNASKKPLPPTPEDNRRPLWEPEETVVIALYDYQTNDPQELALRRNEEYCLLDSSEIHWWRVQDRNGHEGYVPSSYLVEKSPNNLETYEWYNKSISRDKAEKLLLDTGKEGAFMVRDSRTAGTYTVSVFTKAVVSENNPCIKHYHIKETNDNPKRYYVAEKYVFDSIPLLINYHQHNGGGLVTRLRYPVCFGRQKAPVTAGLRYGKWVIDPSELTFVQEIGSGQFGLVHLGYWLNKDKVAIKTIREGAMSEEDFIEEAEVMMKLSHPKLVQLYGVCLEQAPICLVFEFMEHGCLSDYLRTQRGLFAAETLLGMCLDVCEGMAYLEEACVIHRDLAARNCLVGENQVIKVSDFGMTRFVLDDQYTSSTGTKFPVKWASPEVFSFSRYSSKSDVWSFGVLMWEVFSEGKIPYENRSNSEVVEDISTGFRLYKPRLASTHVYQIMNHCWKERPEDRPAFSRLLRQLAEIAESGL
Assay: as above
Assay type: biochemical
Details: plate E4; inhibitor 100 uM

SMILES	Inhibition level, ITK
CC(C)(C)n1nc(-c2ccc(Cl)cc2)c2c(N)ncnc21 [PP2]	2
O=c1c(O)c(-c2ccc(O)c(O)c2)oc2cc(O)cc(O)c12 [Quercetin]	0
Cn1cc(C2=C(c3cn(CCCSC(=N)N)c4ccccc34)C(=O)NC2=O)c2ccccc21 [Ro-31-8220]	2
CC(=O)c1c(O)c(C)c(O)c(Cc2c(O)c3c(c(C(=O)/C=C/c4ccccc4)c2O)OC(C)(C)C=C3)c1O [Rottlerin (Mallotoxin)]	1

Molecular target: plurality of kinases (Table 5) (Homo sapiens, UniProt P11309)
Assay: as above
Assay type: biochemical
Details: not given

plurality of kinases (Table 5) (Homo sapiens, UniProt P11309), sequence (P11309 whole entry): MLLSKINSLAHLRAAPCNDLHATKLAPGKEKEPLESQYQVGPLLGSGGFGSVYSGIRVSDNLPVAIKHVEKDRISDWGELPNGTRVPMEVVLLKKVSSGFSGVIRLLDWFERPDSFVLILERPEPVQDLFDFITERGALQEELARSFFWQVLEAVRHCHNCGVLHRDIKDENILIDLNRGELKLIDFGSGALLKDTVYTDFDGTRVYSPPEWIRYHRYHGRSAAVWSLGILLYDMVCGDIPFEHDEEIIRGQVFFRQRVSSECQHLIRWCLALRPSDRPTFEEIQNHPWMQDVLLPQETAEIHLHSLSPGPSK

SMILES	Inhibition level, PIM1
CN[C@@H]1C[C@H]2O[C@@](C)([C@@H]1OC)n1c3ccccc3c3c4c(c5c6ccccc6n2c5c31)C(=O)NC4 [Staurosporine]	2

Same assay, conditions: plate C2; Ro-31-8220 90 uM

SMILES	Inhibition level, PIM1
Cn1cc(C2=C(c3cn(CCCSC(=N)N)c4ccccc34)C(=O)NC2=O)c2ccccc21 [Ro-31-8220]	2

Same assay, conditions: plate C2; inhibitor 100 uM

SMILES	Inhibition level, PIM1
CC(C)(C)n1nc(-c2ccc(Cl)cc2)c2c(N)ncnc21 [PP2]	2
Cn1cc(C2=C(c3cn(CCCSC(=N)N)c4ccccc34)C(=O)NC2=O)c2ccccc21 [Ro-31-8220]	0
CC(=O)c1c(O)c(C)c(O)c(Cc2c(O)c3c(c(C(=O)/C=C/c4ccccc4)c2O)OC(C)(C)C=C3)c1O [Rottlerin (Mallotoxin)]	2

Molecular target: T4, plurality of kinases (Table 5) (Homo sapiens, UniProt Q96KB5)
T4 sequence (Q96KB5 1-322): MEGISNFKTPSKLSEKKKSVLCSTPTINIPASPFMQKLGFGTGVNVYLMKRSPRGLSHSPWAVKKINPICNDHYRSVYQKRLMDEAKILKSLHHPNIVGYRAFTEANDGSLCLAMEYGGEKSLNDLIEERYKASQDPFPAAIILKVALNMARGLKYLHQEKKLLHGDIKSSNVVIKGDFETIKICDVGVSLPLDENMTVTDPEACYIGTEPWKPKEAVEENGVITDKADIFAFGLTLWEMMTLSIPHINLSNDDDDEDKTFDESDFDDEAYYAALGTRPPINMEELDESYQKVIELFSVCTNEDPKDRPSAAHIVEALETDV
Assay: as above
Assay type: biochemical
Details: plate G7; Ro-31-8220 90 uM

SMILES	Inhibition level, TOPK
Cn1cc(C2=C(c3cn(CCCSC(=N)N)c4ccccc34)C(=O)NC2=O)c2ccccc21 [Ro-31-8220]	2

Same assay, conditions: plate G7; Staurosporine 21.5 uM

SMILES	Inhibition level, TOPK
CN[C@@H]1C[C@H]2O[C@@](C)([C@@H]1OC)n1c3ccccc3c3c4c(c5c6ccccc6n2c5c31)C(=O)NC4 [Staurosporine]	2

Same assay, conditions: plate G7; inhibitor 100 uM

SMILES	Inhibition level, TOPK
CC(C)(C)n1nc(-c2ccc(Cl)cc2)c2c(N)ncnc21 [PP2]	2
O=c1c(O)c(-c2ccc(O)c(O)c2)oc2cc(O)cc(O)c12 [Quercetin]	0
Cn1cc(C2=C(c3cn(CCCSC(=N)N)c4ccccc34)C(=O)NC2=O)c2ccccc21 [Ro-31-8220]	0
CC(=O)c1c(O)c(C)c(O)c(Cc2c(O)c3c(c(C(=O)/C=C/c4ccccc4)c2O)OC(C)(C)C=C3)c1O [Rottlerin (Mallotoxin)]	2
